Our source for the IC50 and inhibition values is PubChem BioAssay AID602470 (Southern Research Specialized Biocontainment Screening …, 2012).

Assay [1] has as its system RSV-infected cells, antiviral CPE inhibition. The assay is described as follows: anti-RSV activity in infected cells – counter-screen for VEEV inhibitor project, dose response (AID 602470). Background: Counterscreens check selectivity or assay interference.
Assay in assay [2]: as above
The settings on record: RSV-infected cells, antiviral CPE inhibition; at 12.5 µM (top of the series).

Each structure is given as a SMILES string. Active and inactive are the calls of the source. No rule for the calls is given here.

What is called IC50 is the concentration at which inhibition is half-maximal. Regarding `CN(C(=O)Cc1cccs1)c1nc2c(s1)CCCC2`, the half-maximal inhibitory concentration (IC50) in assay [1] is 680 nM.
Usually inhibition stands for how much of the control response was suppressed. Take `CCN1CCN(Cc2nc3ccc([N+](=O)[O-])cc3c(=O)n2-c2ccccc2F)CC1`: the inhibition in assay [2] is 38.2% (inactive).
On the same count and under the same terms, in the case of `CN1CCN(Cc2nc3ccc([N+](=O)[O-])cc3c(=O)n2-c2ccccc2F)CC1` it was 31.6% (inactive).
